The structures appear in SMILES notation. Structures can show the parent of a compound that is named as a salt.

We go through seven compounds from patent US8410284B2, “Cyclic benzimidazole derivatives useful as anti-diabetic agents” (Merck Sharp & Dohme Corp, priority 2008, dated 2013).

In series [1] the target is recombinant human AMPK complex 1 (containing α1β1γ1) (Homo sapiens, UniProt Q13131+Q9Y478). Description: In vitro AMPK activation assay (AMPKSAMSF). The class given is biochemical. The conditions noted are these: recombinant human AMPK complex 1 (α1β1γ1); for Emax: read-out: maximum AMP activation; for % Maximum AMP Activation of human AMPK Complex 1: basal activity subtracted. How it is done:
AMPKSAMSF (In Vitro AMPK Activation Assay)
The recombinant human AMPK complex 1 (containing α1β1γ1) was obtained from baculovirus expression system. Recombinant viruses were generated by cotransfection of AMPK/pBacPak9 clones with Baculogold baculovirus DNA (Pharmingen) in spodoptera frugiperda 21 cells according to the manufacturer's instructions. Each round of virus amplification was performed for 5 days in Grace's medium containing 10% serum. Virus that had been subjected to three rounds of amplification was used for all protein production procedures. To express the AMPK complex, sf21 cells were adapted to serum free medium (SF900 II, Invitrogen) by sequential dilution from serum containing stocks into SF900 II medium and maintained in shaker flasks at 90 rpm at 27° C. The recombinant AMPK enzyme complex was produced by triple infection, one recombinant virus for each of the subunits, in sf21 cells under serum free conditions. Cells were infected in log phase, 1×10^6 cells/ml, at a multiplicity of infection of ˜5. Cells were harvested by centrifugation at 10,000×g for 15 minutes after 72 hours of infection with viruses. The insect cell pellet from 2 liters of culture was resuspended in 50 ml lysis buffer (20 mM Tris-HCl, 50 mM NaCl, 50 mM NaF, 30 mM Na PPi, 0.25 M sucrose, 10 mM ZnCl2, 2 mM DTT, 0.4 mg/ml digitonin) and subjected to two cycles of freeze-thaw lysis in a dry-ice ethanol bath. Insoluble material was removed by centrifugation at 10,000×g and the supernatant was fractionated with use of polyethylene glycol (PEG). The protein fraction precipitating between 2.5 and 6% PEG was used for further purification using a Blue-Sepharose step (Zhou et al, J. Clin. Invest. 108, 1167-1174, 2001).
The total in vitro AMPK activation assay volume is 50 μl in a 96-well plate. The reaction mixture contained 100 μM ATP (0.5 μCi ^33P-ATP per reaction), and 50 μM SAMS (HMRSAMSGLHLVKRR) in a buffer (20 mM HEPES, pH 7.0, 5 mM MgCl2, 0.01% Brij35). The reaction was initiated with addition of the enzyme. After 30-minute incubation at 30° C., the reaction was stopped by addition of 80 μl 1% H3PO4. Aliquots (100 μl) were transferred to 96-well MultiScreen plates (MAPHNOB50; Millipore Corp., Bedford, Mass., USA). The plate was washed three times with 1% H3PO4 followed by detection in a Top-count. The counts per minute from the basal activity (the reaction without activator) was subtracted from each well and the data were expressed as % maximum AMP activation followed by EC50 calculation.

The subject of series [2] is ob/ob and db/db mice. Particulars: following 8 weeks of administration; cited from earlier work.

recombinant human AMPK complex 1 (containing α1β1γ1), sequence (Q13131 whole entry): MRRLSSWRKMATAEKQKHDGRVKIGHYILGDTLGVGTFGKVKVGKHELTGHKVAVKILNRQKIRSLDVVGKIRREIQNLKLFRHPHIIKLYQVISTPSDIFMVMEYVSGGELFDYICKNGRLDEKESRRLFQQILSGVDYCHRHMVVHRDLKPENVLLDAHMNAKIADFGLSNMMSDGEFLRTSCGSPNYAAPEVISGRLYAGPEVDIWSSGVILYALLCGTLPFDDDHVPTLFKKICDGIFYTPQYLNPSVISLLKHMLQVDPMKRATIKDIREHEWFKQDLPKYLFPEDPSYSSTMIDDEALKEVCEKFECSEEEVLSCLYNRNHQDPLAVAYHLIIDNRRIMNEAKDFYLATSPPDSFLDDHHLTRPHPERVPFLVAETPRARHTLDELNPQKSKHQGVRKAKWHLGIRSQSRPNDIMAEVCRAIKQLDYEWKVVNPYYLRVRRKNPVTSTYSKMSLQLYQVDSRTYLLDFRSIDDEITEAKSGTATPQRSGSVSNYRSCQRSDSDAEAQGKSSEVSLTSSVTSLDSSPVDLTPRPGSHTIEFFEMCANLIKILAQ
recombinant human AMPK complex 1 (containing α1β1γ1), sequence (Q9Y478 whole entry): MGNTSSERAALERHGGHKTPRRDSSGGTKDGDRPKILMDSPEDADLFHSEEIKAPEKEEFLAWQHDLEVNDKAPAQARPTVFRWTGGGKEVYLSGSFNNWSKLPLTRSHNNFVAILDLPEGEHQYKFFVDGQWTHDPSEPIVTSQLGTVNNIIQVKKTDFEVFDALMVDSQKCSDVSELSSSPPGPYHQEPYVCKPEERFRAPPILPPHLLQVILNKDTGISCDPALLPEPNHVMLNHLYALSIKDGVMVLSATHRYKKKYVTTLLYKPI
recombinant human AMPK complex 1 (containing α1β1γ1), sequence (P54619 whole entry partner): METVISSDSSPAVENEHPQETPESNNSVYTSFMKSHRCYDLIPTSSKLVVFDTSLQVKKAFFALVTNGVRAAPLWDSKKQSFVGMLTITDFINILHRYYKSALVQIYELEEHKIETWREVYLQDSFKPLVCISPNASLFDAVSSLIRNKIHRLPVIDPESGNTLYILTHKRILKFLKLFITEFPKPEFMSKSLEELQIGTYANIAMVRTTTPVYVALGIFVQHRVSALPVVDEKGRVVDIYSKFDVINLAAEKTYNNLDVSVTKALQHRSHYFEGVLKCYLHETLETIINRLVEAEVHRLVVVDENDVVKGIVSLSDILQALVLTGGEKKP

Usually melting point stands for the temperature, or range, at which the solid turns liquid. The compound `Cc1ccc(Cc2nc3cc(-c4ccc(-c5ccccc5)cc4)c(Cl)cc3[nH]2)cc1P(=O)(O)O` [Example 11, {5-[(5-biphenyl-4-yl-6-chloro-1H-benzimidazol-2-yl)methyl]-2-methylphenyl}phosphonic acid] displayed a melting point greater than 220 °C. Besides, in series [1], the Emax is greater than 80%.

Regarding `Cc1ccc(Oc2nc3cc(-c4ccc(-c5ccccc5)cc4)c(Cl)cc3[nH]2)cc1P(=O)(O)O` (as salt: salt) [Example 1, ((5-(4-Biphenyl)-6-chloro-1H-benzimidazol-2-yl)oxo)-4-methylphen-3-ylphosphonic acid], the melting point is 225 to 228 °C.

For orientation: EC50 means the concentration needed to bring the measured effect to its halfway point. Regarding `O=P(O)(O)c1cccc(Oc2nc3cc(-c4ccc(-c5ccccc5)cc4)c(Cl)cc3[nH]2)c1` [Example 2, ((5-(4-Biphenyl)-6-chloro-1H-benzimidazol-2-yl)oxo)phen-3-ylphosphonic acid], the melting point is 199 to 205 °C. In series [1], the EC50 is 2.5 nM, the “% Maximum AMP Activation of human AMPK Complex 1” value stood at 205% and the Emax was greater than 80%.

As to `NC(=O)c1ncn([C@@H]2O[C@H](CO)[C@@H](O)[C@H]2O)c1N` [AICAR], the blood glucose reduction in series [2] was 35%.

In the case of `Cn1ccc2cc(-c3cc4nc(Oc5cccc(P(=O)(O)O)c5)[nH]c4cc3Cl)ccc21` [Example 16, (3-{[6-chloro-5-(1-methyl-1H-indol-5-yl)-1H-benzimidazol-2-yl]oxy}phenyl)phosphonic acid], in series [1], the EC50 worked out at 0.6 nM, the “% Maximum AMP Activation of human AMPK Complex 1” value was 173% and the Emax is greater than 80%.

Take `O=P(O)(O)c1cccc(C(F)(F)c2nc3cc(-c4ccc(-c5ccccc5)cc4)c(Cl)cc3[nH]2)c1` [Example 15, {3-[(5-biphenyl-4-yl-6-chloro-1H-benzimidazol-2-yl)(difluoro)methyl]phenyl}phosphonic acid]: the Emax in series [1] is greater than 80%.

Regarding `CCOC(=O)CNP(=O)(NCC(=O)OCC)c1cc(Oc2nc3cc(-c4ccc(C5CCCCC5)cc4)c(Cl)cc3[nH]2)ccc1C` [Example 28, {[6-Chloro-5-(4-cyclohexylphenyl)-1H-benzoimidazol-2-yl]oxo}-4-methylphen-3-ylphosphono-bis-2-amino-ethanoic acid ethyl ester], the Emax in series [1] was greater than 80%.
